In patent US6677308B1, “Meta-substituted phenylene sulphonamide derivatives” (G. D. Searle & Co., priority 1996, dated 2004) one finds IC50 data, which are given here for nine compounds.

The target in test [1] is T1, Human vitronectin receptor (αvβ3) (Homo sapiens, UniProt P05106+P06756).
T1 construct: Human vitronectin receptor (αvβ3) was purified from human placenta as previously described; from tissue; host or cells: human placenta
Nature of the test: Vitronectin adhesion assay (solid phase receptor assay, competition with biotinylated vitronectin). The class given is binding. As for the experimental part: Vitronectin Adhesion Assay
Human vitronectin receptor (αvβ3) was purified from human placenta as previously described [Pytela et al., Methods in Enzymology, 144:475-489 (1987)]. Human vitronectin was purified from fresh frozen plasma as previously described [Yatohgo et al., Cell Structure and Function, 13:281-292 (1988)]. Biotinylated human vitronectin was prepared by coupling NHS-biotin from Pierce Chemical Company (Rockford, Ill.) to purified vitronectin as previously described [Charo et al., J. Biol. Chem., 266(3):1415-1421 (1991)]. Assay buffer, OPD substrate tablets, and RIA grade BSA were obtained from Sigma (St. Louis, Mo.). Anti-biotin antibody was obtained from Calbiochem (La Jolla, Calif.). Linbro microtiter plates were obtained from Flow Labs (McLean, Va.). ADP reagent was obtained from Sigma (St. Louis, Mo.).
(§1) Solid Phase Receptor Assays
This assay was essentially the same as previously reported [Niiya et al., Blood, 70:475-483 (1987)]. The purified human vitronectin receptor (αvβ3) was diluted from stock solutions to 1.0 μg/mL in Tris-buffered saline containing 1.0 mM Ca^++, Mg^++, and Mn^++, pH 7.4 (TBS^+++). The diluted receptor was immediately transferred to Linbro microtiter plates at 100 μL/well (100 ng receptor/well). The plates were sealed and incubated overnight at 4° C. to allow the receptor to bind to the wells. All remaining steps were at room temperature. The assay plates were emptied and 200 μL of 1% RIA grade BSA in TBS^+++ (TBS^+++/BSA) were added to block exposed plastic surfaces. Following a 2 hour incubation, the assay plates were washed with TBS^+++ using a 96 well plate washer. Logarithmic serial dilution of the test compound and controls were made starting at a stock concentration of 2 mM and using 2 nM biotinylated vitronectin in TBS^+++/BSA as the diluent. This premixing of labeled ligand with test (or control) ligand, and subsequent transfer of 50 μL aliquots to the assay plate was carried out with a CETUS Propette robot; the final concentration of the labeled ligand was 1 nM and the highest concentration of test compound was 1.0×10^−4 M. The competition occurred for two hours after which all wells were washed with a plate washer as before. Affinity purified horseradish peroxidase labeled goat anti-biotin antibody was diluted 1:3000 in TBS^+++/BSA and 125 μL were added to each well. After 30 minutes, the plates were washed and incubated with OPD/H2O2 substrate in 100 mM/L Citrate buffer, pH 5.0. The plate was read with a microtiter plate reader at a wavelength of 450 nm and when the maximum-binding control wells reached an absorbance of about 1.0, the final A450 were recorded for analysis. The data were analyzed using a macro written for use with the EXCEL™ spreadsheet program. The mean, standard deviation, and %CV were determined for duplicate concentrations. The mean A450 values were normalized to the mean of four maximum-binding controls (no competitor added) (B-MAX). The normalized values were subjected to a four parameter curve fit algorithm [Rodbard et al., Int.

For test [2], the target named is T2, Human fibrinogen receptor (αIIbβ3) (Homo sapiens, UniProt P05106+P08514).
T2 construct: Human fibrinogen receptor (αIIbβ3) was purified from outdated platelets; from tissue; host or cells: outdated (human) platelets
Nature of the test: Purified IIb/IIIa receptor assay (solid phase receptor assay, competition with biotinylated vitronectin). The class given is binding. The conditions noted are these: purified human αIIbβ3 from platelets; 1 nM biotinylated vitronectin; highest concentration 1.0×10^−4 M.
From the text: Purified IIb/IIIa Receptor Assay
Human fibrinogen receptor (αIIbβ3) was purified from outdated platelets. (Pytela, R., Pierschbacher, M. D., Argraves, S., Suzuki, S., and Rouslahti, E. “Arginine-Glycine-Aspartic acid adhesion receptors”, Methods in Enzymology 144(1987):475-489.) Human vitronectin was purified from fresh frozen plasma as described in Yatohgo, T., Izumi, M., Kashiwagi, H., and Hayashi, M., “Novel purification of vitronectin from human plasma by heparin affinity chromatography,” Cell Structure and Function 13(1988):281-292. Biotinylated human vitronectin was prepared by coupling NHS-biotin from Pierce Chemical Company (Rockford, Ill.) to purified vitronectin as previously described. (Charo, I. F., Nannizzi, L., Phillips, D. R., Hsu, M. A., Scarborough, R. M., “Inhibition of fibrinogen binding to GP IIb/IIIa by a GP IIIa peptide”, J. Biol. Chem. 266(3)(1991): 1415-1421.) Assay buffer, OPD substrate tablets, and RIA grade BSA were obtained from Sigma (St. Louis, Mo.). Anti-biotin antibody was obtained from Calbiochem (La Jolla, Calif.). Linbro microtiter plates were obtained from Flow Labs (McLean, Va.). ADP reagent was obtained from Sigma (St. Louis, Mo.).
as §1
This assay is essentially the same reported in Niiya, K., Hodson, E., Bader, R., Byers-Ward, V. Koziol, J. A., Plow, E. F. and Ruggeri, Z. M., “Increased surface expression of the membrane glycoprotein IIb/IIIa complex induced by platelet activation: Relationships to the binding of fibrinogen and platelet aggregation”, Blood 70(1987):475-483. The purified human fibrinogen receptor (αIIbβ3) was diluted from stock solutions to 1.0 μg/mL in Tris-buffered saline containing 1.0 mM Ca^++, Mg^++, and Mn^++, pH 7.4 (TBS^+++). The diluted receptor was immediately transferred to Linbro microtiter plates at 100 μL/well (100 ng receptor/well). The plates were sealed and incubated overnight at 4° C. to allow the receptor to bind to the wells. All remaining steps were at room temperature. The assay plates were emptied and 200 μL of 1% RIA grade BSA in TBS^+++ (TBS^+++/BSA) were added to block exposed plastic surfaces. Following a 2 hour incubation, the assay plates were washed with TBS^+++ using a 96 well plate washer. Logarithmic serial dilution of the test compound and controls were made starting at a stock concentration of 2 mM and using 2 nM biotinylated vitronectin in TBS^+++/BSA as the diluent. This premixing of labeled ligand with test (or control) ligand, and subsequent transfer of 50 μL aliquots to the assay plate was carried out with a CETUS Propette robot; the final concentration of the labeled ligand was 1 nM and the highest concentration of test compound was 1.0×10^−4 M. The competition occurred for two hours after which all wells were washed with a plate washer as before. Affinity purified horseradish peroxidase labeled goat anti-biotin antibody was diluted 1:3000 in TBS^+++/BSA and 125 μL were added to each well. After 30 minutes, the plates were washed and incubated with […] substrate in 100 mM/L citrate buffer, pH 5.0. The plate was read with a microtiter plate reader at a wavelength of 450 nm and when the maximum-binding control wells reached an absorbance of about 1.0, the final A450 were recorded for analysis. The data were analyzed using a macro written for use with the EXCEL™ spreadsheet program. The mean, standard deviation, and %CV were determined for duplicate concentrations. The mean A450 values were normalized to the mean of four maximum-binding controls (no competitor added) (B-MAX). The normalized values were subjected to a four parameter curve fit algorithm, [Robard et al., Int.

In test [3] the test system is Human platelet rich plasma. The test is described as follows: Human platelet rich plasma assay (ADP induced platelet aggregation). The class given is cell-based. The conditions noted are these: concentration of half-maximal inhibition, read-out: Human PRP. The method, then: Human Platelet Rich Plasma Assays
Healthy aspirin free donors were selected from a pool of volunteers. The harvesting of platelet rich plasma and subsequent ADP induced platelet aggregation assays were performed as described in Zucker, M. B., “Platelet Aggregation Measured by the Photometric Method”, Methods in Enzymology 169(1989):117-133. Standard venipuncture techniques using a butterfly allowed the withdrawal of 45 mL of whole blood into a 60 mL syringe containing 5 mL of 3.8% trisodium citrate. Following thorough mixing in the syringe, the anti-coagulated whole blood was transferred to a 50 mL conical polyethylene tube. The blood was centrifuged at room temperature for 12 minutes at 200×g to sediment non-platelet cells. Platelet rich plasma was removed to a polyethylene tube and stored at room temperature until used. Platelet poor plasma was obtained from a second centrifugation of the remaining blood at 2000×g for 15 minutes. Platelet counts are typically 300,000 to 500,000 per microliter. Platelet rich plasma (0.45 mL) was aliquoted into siliconized cuvettes and stirred (1100 rpm) at 37° C. for 1 minute prior to adding 50 uL of pre-diluted test compound. After 1 minute of mixing, aggregation was initiated by the addition of 50 uL of 200 uM ADP. Aggregation was recorded for 3 minutes in a Payton dual channel aggregometer (Payton Scientific, Buffalo, N.Y.). […]

The mark [4] stands for this setting: purified human αvβ3 from placenta, 1 nM biotinylated vitronectin, highest concentration 1.0×10^−4 M, read-out: AvB3 IC50.

Structures can show the parent of a compound that is named as a salt. Where two headings read alike, the source gives them in different places. Some results are limits rather than exact numbers.

As to `C=CC(CC(=O)O)NS(=O)(=O)c1cccc(NC(=O)c2cccc(NC(=N)N)c2)c1` (racemic) [Example 3, (±) 3-[[[3-[[[3-[(Aminoiminomethyl)amino]phenyl]-carbonyl]amino]phenyl]sulfonyl]amino]-4-pentenoic Acid, Trifluoroacetate Salt], the results for the IC50 in test [1] (setting [4]) and in test [2] were 5.34 nM and 11.6 nM, respectively.
For `N=C(N)Nc1cccc(C(=O)Nc2cccc(S(=O)(=O)NC(CC(=O)O)c3cc(Cl)cc(Cl)c3)c2)c1` (racemic) [Example 4, (±) β-[[[3-[[[3-[(Aminoiminomethyl)amino]phenyl]-carbonyl]amino]phenyl]sulfonyl]amino]-3,5-dichlorobenzene Propanoic Acid, Trifluoroacetate Salt] the same measures were 659 nM and 987 nM.
Consider `N=C(N)Nc1cccc(C(=O)Nc2cccc(S(=O)(=O)NC(CC(=O)O)c3ccccc3)c2)c1` (stereo not drawn) [Example 1, β-[[[3-[[[3-[(Aminoiminomethyl)amino]phenyl]carbonyl]amino]phenyl]sulfonyl]amino]-benzenepropanoic Acid, Trifluoroacetate Salt], for which the figures for the IC50 in test [1] (setting [4]), in test [3] and in test [2] were 1.66 nM, over 200000 nM and 11.3 nM, respectively.
In the case of `N=C(N)Nc1cccc(C(=O)Nc2cccc(S(=O)(=O)NC(CC(=O)O)c3cccnc3)c2)c1` (stereo not drawn) [Example 5, β-[[[3-[[[3-[(Aminoiminomethyl)amino]phenyl]-carbonyl]amino]phenyl]sulfonyl]amino]pyridine-3-propanoic Acid, tris(Trifluoroacetate) Salt], the IC50 in test [1] (setting [4]) turned out to be 4.66 nM; in test [2], 24.7 nM.
As for `N=C(N)Nc1cccc(C(=O)Nc2cccc(S(=O)(=O)N3CCCCC3CC(=O)O)c2)c1` (stereo not drawn) [Example 6, 1-[[3-[[[3-[(Aminoiminomethyl)amino]phenyl]carbonyl]-amino]phenyl]sulfonyl]piperidine-2-acetic Acid, Trifluoroacetate Salt], the IC50 is 183 nM in test [1] (setting [4]) and 3920 nM in test [2].
For `C#C[C@H](CC(=O)O)NS(=O)(=O)c1cccc(NC(=O)c2cccc(NC3=NCCN3)c2)c1` [Example 7, 3S-[[[3-[[[3-[(4,5-Dihydro-1H-imidazol-2-yl)amino]-phenyl]carbonyl]amino]phenyl]sulfonyl]amino]-4-pentynoic Acid, Trifluoroacetate Salt], the IC50 in test [1] (setting [4]) amounted to 15 nM; in test [2] it was 418 nM.
With `C#CC(CC(=O)O)NS(=O)(=O)c1cccc(NC(=O)c2cccc(NC(=N)N)c2)c1` (stereo not drawn) [Example 8, 3-[[[3-[[[3-[(Aminoiminomethyl)amino]phenyl]-carbonyl]amino]phenyl]sulfonyl]amino]-4-pentynoic Acid, Trifluoroacetate Salt], the IC50 is 11.3 nM in test [1] (setting [4]) and 38.2 nM in test [2].
For `N=C(N)Nc1cccc(S(=O)(=O)Nc2cccc(S(=O)(=O)NC(CC(=O)O)c3ccccc3)c2)c1` (stereo not drawn) [Example 9, β-[[[3-[[[3-[(Aminoiminomethyl)amino]phenyl]-sulfonyl]amino]phenyl]sulfonyl]amino]phenyl-propanoic Acid, Trifluoroacetate Salt] the same measures were 29.3 nM and 93.6 nM.
Consider “β-[[2-[[5-[(aminoiminomethyl)amino]-1-oxopentyl]amino]-1-oxoethyl]amino]-3-pyridinepropanoic acid [reference compound]”, for which the IC50 in test [1] (positive control included on each plate, read-out: IC50 (αvβ3 antagonist, positive control)) was in the range of 3 to 10 nM.
